{"source": "patent US20140350097A1", "about": "“TREATMENT OF HYPOTENSION ASSOCIATED WITH HEMODIALYSIS” (priority 2013, published 2014)", "key": {"beagle dogs": {"system": "beagle dogs", "assay": "1 or 4 day infusion toxicity in beagle dogs", "type": "in vivo, dog"}, "Wistar rats": {"system": "Wistar rats", "assay": "Endotoxin (LPS)-induced shock in Wistar rats", "type": "in vivo, rat", "from_the_text": "For example, in Wistar rats, shock induced by endotoxin such as LPS (lipopolysaccharide from Salmonella typhosa) is accompanied by severe hypotension, as well known in the art. […] In addition, the survival rate was increased by NOX-100.\nBacterial translocation across damaged intestinal epithelium into the circulation occurs in rats during endotoxin-induced shock, as evidenced by positive bacterial cultures grown from blood, mesenteric lymph nodes, spleen, or liver obtained after LPS challenge.\nMoreover, in the rat shock model, liver injury occurs as a result of hypoperfusion and Kupffer cell activation with the release of cytokines by LPS."}, "mice": {"system": "mice", "assay": "Blood pressure studies in mice", "type": "in vivo", "from_the_text": "The lack of effect on normal blood pressure is advantageous for NOX-100 as a small molecule .NO scavenger."}, "[1]": {"assay": "Water solubility and isotonicity of Sodium MGD", "type": "physicochemical", "protocol": "Sodium MGD is a white to slightly yellowish powder with 1.5 molecules of co-crystallized water, and is water soluble up to 35% w/v at approximately 25° C. A 4.5% (w/v) solution of the Sodium MGD in water without any additives affords a near isotonic solution."}, "albino rats": {"system": "albino rats", "assay": "Single dose infusion toxicity in albino rats", "type": "in vivo", "conditions": "single dose 1000, 1450 or 2000 mg/kg infused over 2 or 8 hours", "protocol": "Based on the preliminary I.V. and S.C. studies, doses of 1000, 1450 or 2000 mg/kg of NOX-100 administered over an 8-hour period were tested in albino rats. A total dose of 2000 mg/kg administered over a shorter period of 2 hours was then tested."}, "[2]": {"assay": "Binding of .NO by NOX-100 in the presence of a metal ion", "conditions": "in the presence of a metal ion (e.g., iron)", "from_the_text": "As illustrated in Scheme 1 following, the binding is a two-step process. First, two molecules of NOX-100 combine with Fe^2+ to form a complex, [(NOX)2-Fe], which is held together via the planar coordination of the Fe^2+ by two dithiocarbamates. Next, the [(NOX)2-Fe] complex tightly binds .NO, forming an .NO-containing complex, [(NOX)2-Fe—NO]. See e.g., Yokokawa et al, 1995, Id.; Kang et al, 1997, Id."}, "[3]": {"assay": "Preliminary intravenous pharmacokinetics in dogs", "type": "in vivo, dog", "conditions": "bolus injection 30 mg/kg i.v.", "protocol": "(§1) The pharmacokinetics of intravenously administered NOX-100 was evaluated in mice, rats and dogs. Preliminary pharmacokinetic studies were conducted using a bolus injection of 30 mg/kg. Post injection, the drug was rapidly eliminated in all three species in a bi-exponential manner with a beta-t½ of approximately 6, 30 and 40 minutes in the mouse, rat and dog, respectively. […] The volume of distribution was around 20-30% of body weight and was similar in the three species. This is likely due to the hydrophilic nature of the drug and may reflect the distribution of NOX-100 primarily in the extracellular space."}, "male Wistar rats": {"system": "male Wistar rats", "assay": "Preliminary acute single dose toxicity study in male Wistar rats", "type": "in vivo, rat", "conditions": "single I.V. 30-608 mg/kg or S.C. 250-1,000 mg/kg, 7-day observation", "protocol": "NOX-100 has been evaluated in a number of toxicological studies, including acute (single-dose in rats and dogs; 4-day dosing in rats and dogs), subacute (14-day dosing in rats and dogs) studies, and in vitro mutagenicity testing.\nIn a preliminary acute single dose study, male Wistar rats were administered NOX-100 intravenously (I.V.) at doses of 30-608 mg/kg or subcutaneous (S.C.) doses of 250-1,000 mg/kg. Each dosing was followed by a 7-day observation period. […] Another group of male Wistar rats were administered NOX-100 with Fe^2+ as a single SC dose at 250-1,000 mg/kg. […] Without wishing to be bound by any theory, it is believed that this discoloration was due to the color of the compound at the high dose."}, "[4]": {"assay": "Preliminary intravenous pharmacokinetics in rats", "type": "in vivo, rat", "conditions": "bolus injection 30 mg/kg i.v.", "protocol": "as §1"}, "Crj:CD(SD)IGS rats (SPF)": {"system": "Crj:CD(SD)IGS rats (SPF)", "assay": "Four-week repeated dose intravenous toxicity study in rats with two-week recovery", "type": "in vivo, rat", "protocol": "The objective of this study was to investigate the toxicity of NOX-100 when administered as a single intravenous injection once daily for four consecutive weeks to Sprague-Dawley (SPF) rats and to determine the reversibility of changes which were established as treatment related.\nNOX-100 was administered intravenously as a daily single dose (“pulse”) (40 mL/kg) at doses of 100, 500, and 2000 mg/kg/day for four weeks in Crj:CD(SD)IGS rats (SPF). The Control group was treated with saline (n=60 rats per gender−balanced randomization across all groups.) Following termination of treatment, an additional group of rats in the Control and highest dose group were held for a period of two weeks in order determine if the potential treatment related changes were reversible."}}, "data": [{"smiles": "CN(C[C@H](O)[C@@H](O)[C@H](O)[C@H](O)CO)C(=S)S", "note": "[NOX-100, N-methyl-D-glucamine dithiocarbamate]", "values": [{"measurement": "pathological findings", "setting": "beagle dogs; 2000 mg/kg/day", "result": "thickening of the duodenal wall and tubular dilatation of the kidney with basophilia in the cortex and vacuolation in the areas of cortical tubules"}, {"measurement": "body weight and food consumption", "setting": "beagle dogs; 500-2000 mg/kg/day, 8-hour infusion, 1 or 4 days", "result": "decreased"}, {"measurement": "plasma concentrations on Day 4 compared to Day 1", "setting": "beagle dogs; 2 hours from the start of infusion, males and females", "result": "apparent increases"}, {"measurement": "doses at which signs of adverse effects were first observed", "setting": "beagle dogs; dogs", "result": "500 to 2000", "unit": "mg/kg/day"}, {"measurement": "survival rate", "setting": "Wistar rats; Wistar rats, LPS shock", "result": "increased"}, {"measurement": "LPS shock hypotension", "setting": "Wistar rats; Wistar rats, dose 0.3 mmol/kg", "result": "gradually reversed towards normal blood pressure levels"}, {"measurement": "plasma indices of liver injury (ornithine carbamoyltransferase, aspartate transaminase, fibrinogen)", "setting": "Wistar rats; rat shock model, 200 mg/kg/day", "result": "all significantly reduced"}, {"measurement": "reduction of bacterial translocation", "setting": "Wistar rats; rats, endotoxin-induced shock, prior infusion 200 mg/kg/day", "result": "about 70%"}, {"measurement": "effect on hypotensive effect of nitroprusside", "setting": "mice; co-administration with sodium nitroprusside (.NO donor)", "result": "reduced the hypotensive effect of nitroprusside"}, {"measurement": "effect on blood pressure", "setting": "mice; intravenous infusion of NOX-100 alone", "result": "did not affect blood pressure"}, {"measurement": "water solubility", "setting": "[1]; approximately 25° C.", "result": "up to 35 % w/v"}, {"measurement": "concentration of solution in water that is near isotonic", "setting": "[1]; in water without any additives", "result": "4.5 % (w/v)"}, {"measurement": "mortality", "setting": "albino rats", "result": "no mortality"}, {"measurement": "binding of .NO", "setting": "[2]", "result": "binds .NO very tightly"}, {"measurement": "clearance", "setting": "[3]; dog, in vivo, iv, dogs, read-out: clearance rate", "result": "4.1 ± 0.6", "unit": "mL/min/kg"}, {"measurement": "volume of distribution", "setting": "[3]; dogs", "result": "20-30 % of body weight"}, {"measurement": "half-life", "setting": "[3]; in vivo, iv, dog, read-out: beta-t½", "result": "~40", "unit": "min"}, {"measurement": "mortality and overt signs of toxicity", "setting": "male Wistar rats", "result": "no mortality or overt signs of toxicity"}, {"measurement": "half-life", "setting": "[4]; in vivo, iv, rat, read-out: beta-t½", "result": "~30", "unit": "min"}, {"measurement": "clearance", "setting": "[4]; rat, in vivo, iv, rats, read-out: clearance rate", "result": "15 ± 1", "unit": "mL/min/kg"}, {"measurement": "volume of distribution", "setting": "[4]; rats", "result": "20-30 % of body weight"}, {"measurement": "food consumption or body weight gain versus Control", "setting": "Crj:CD(SD)IGS rats (SPF); rat, in vivo", "result": "no significant differences"}, {"measurement": "ophthalmological examinations", "setting": "Crj:CD(SD)IGS rats (SPF); rat, in vivo", "result": "No changes"}, {"measurement": "reversibility after a two week period of bladder mucosal hyperplasia, proximal tubule basophilia and renal papillary edema", "setting": "Crj:CD(SD)IGS rats (SPF); rat, in vivo", "result": "could not be confirmed"}, {"measurement": "reversibility of urinary bladder change", "setting": "Crj:CD(SD)IGS rats (SPF); rat, in vivo", "result": "no clear-cut reversibility"}, {"measurement": "blood sodium, chloride and albumin", "setting": "Crj:CD(SD)IGS rats (SPF); rat, in vivo, 2000 mg/kg", "result": "increased"}, {"measurement": "cholesterol level", "setting": "Crj:CD(SD)IGS rats (SPF); rat, in vivo, 2000 mg/kg", "result": "increased"}, {"measurement": "hemoglobin", "setting": "Crj:CD(SD)IGS rats (SPF); rat, in vivo, 2000 mg/kg", "result": "decrease"}, {"measurement": "no adverse effect level", "setting": "Crj:CD(SD)IGS rats (SPF); rats, daily single i.v. dose, four weeks", "result": 100, "unit": "mg/kg"}]}]}
